The test system of one series is Slc:SD rats. Nature of the series: Test Example 2: genital organ weights 1 week after ethynylestradiol dosing for 10 days. The series is classed as in vivo, rat. The conditions noted are these: ethynylestradiol 3 mg/kg orally once daily for 10 days, weighed 1 week after the course, n = 10. Here is the method: Slc:SD rats aged 10 weeks (in groups of 10) were orally dosed with 3 mg/kg of the endocrine disturbing chemical ethynylestradiol suspended in 0.5% sodium carboxymethylcellulose (CMC) solution (ethynylestradiol 0.3 mg/mL) or, as control, 10 mL/kg of 0.5% CMC solution once daily in the morning for 10 days, and at 1 week after the administration course, the testis, epididymis, prostate and seminal vesicle were respectively weighed.
Rat husbandry conditions: room temperature 21˜25° C., humidity 45˜60%, artificial lighting 12 hrs (7:00 a.m.˜7:00 p.m.), ventilation frequency 15/hr, solid food (CE-2, CLEA Japan Inc.) and drinking water ad libitum.

Series [1] has as its system rats with the genital organs impaired by ethynylestradiol. Particulars: rat, in vivo. Here is the method:
Using rats with the genital organs impaired by ethynylestradiol as in Test Example 2, the sperm count and motile sperm rate were investigated.
From the right epididymis, the caudal epididymis was excised and weighed with Sartorius electronic balance LC620-S. The caudal epididymis was placed in a sperm collection vial containing 5 mL of BSA-Hanks solution and cut 3 times to cause the sperm to swim out. A 0.05 mL portion of the sperm fluid was sampled and diluted with 0.95 mL of BSA-Hanks solution for use as a diluted sperm fluid. The number of non-motile sperms in the diluted sperm fluid was determined with Thoma's hemocytometer. After this counting of non-motile sperms, the vessel containing the diluted sperm fluid was immersed in hot water and, after return to room temperature, the sperms were counted with the hemocytometer. […] Using the measured values, the motile sperm rate was calculated by means of the following equation [1]. Motile sperm rate (%)=(number of sperms−number of non-motile sperms)/number of sperms×100 [1] (2) Method for Determination of Sperm Count
The caudal epididymis in the sperm collection vial used in the above procedure (1) was further cut to release sperms and the fluid in the vial was filtered through a nylon-mesh sieve. The stock filtrate, 0.1 mL, was diluted with 1.9 mL of formalinized saline and the number of sperms was determined with Thoma's hemocytometer. When the sperm population in the sperm sample was considered to be too small (low turbidity), the stock sperm fluid was not diluted but the vessel was directly immersed in hot water and, after reutrn to room temperature, the number of sperms was determined. Moreover, the number of sperms (sperm count) per caudal epididymis was calculated using the number of sperms determined and the dilution factor by means of the equation given below, with the value per caudal epididymis unit weight (g) being taken as the sperm count/caudal epididymis and the value per epididymis as the sperm count/epididymis.
Sperm count=measured number of sperms×dilution factor Number of sperms/caudal epididymis=number of sperms determined×dilution factor/weight of the caudal epididymis epididymis (g) Number of sperms/epididymis=(number of sperms/caudal epididymis)×weight of epididymis (g)

The test system of another series is SD rats. Description: Test Example 1: genital organ weights after ethynylestradiol dosing for 2 weeks. The series is classed as in vivo, rat. Particulars: ethynylestradiol 3 mg/kg orally once daily for 2 weeks, n = 8. Here is the method:
SD rats aged 11 weeks (in groups of 8) were orally dosed with 3 mg/kg of the endocrine disturbing chemical ethynylestradiol suspended in 0.5% sodium carboxymethylcellulose (CMC) solution (ethynylestradiol 0.6 mg/mL) or, as control, 5 mL/kg of 0.5% CMC solution once daily in the morning for 2 weeks, and after the administration course, the testis, epididymis, prostate and seminal vesicle were respectively weighed.
Rat husbandry conditions: room temperature 21˜25° C., humidity 45˜60%, artificial lighting 12 hrs (7:00 a.m.˜7:00 p.m.), ventillation frequency 15/hr, solid food (CE-2, CLEA Japan Inc.) and drinking water ad libitum.

As for `C#C[C@]1(O)CC[C@H]2[C@@H]3CCc4cc(O)ccc4[C@H]3CC[C@@]21C` [Ethynylestradiol, ethynylestradiol], in the series on Slc:SD rats, the Epididymis weight is reported as 154.5 ± mg/100 gBW, the Prostate weight was 102.3 ± mg/100 gBW, the Seminal vesicle weight is 170.0 ± mg/100 gBW and the Testis weight is 731.3 ± mg/100 gBW. For the same compound, in series [1], the “Caudal epididymis (weight, g)” value was determined as 0.076 g; the Motile sperm rate was 40.6 ± %; the Sperm count is listed as 13.0 ± x10^6; the Sperm count/caudal epididymis is given as 160.2 ± x10^6. The Sperm count/epididymis in series [1] is listed as 88.8 ± x10^6. In the series on SD rats, this compound showed an Epididymis weight of 118 mg/100 g body weight, a Prostate weight of 77.4 mg/100 g body weight, a Seminal vesicle weight of 88.1 mg/100 g body weight and a Testis weight of 705 mg/100 g body weight.
